Results taken from patent US20080070939A1, “LOCAL […] COMPOSITIONS CONTAINING DEXTROROTATORY MORPHINAN DERIVATIVES OR PHARMACEUTICALLY ACCEPTABLE SALTS THEREOF” (CHI MEI FOUNDATION HOSPITAL, priority 2006, published 2008).

Experiments:
Male Sprague-Dawley rats [1] = assay: Infiltrative cutaneous anesthesia (inhibition of cutaneous trunci muscle reflex, CTMR) after subcutaneous injection in rats; type: in vivo
Procedure: Male Sprague-Dawley rats (weighing about 200 to 250 g); for each dose of each drug, n=8.
In brief, hairs on the dorsal surface (about 10×10 cm^2) of the thoracolumbar region of the rat were shaved, and the shaved surface was sterilized with iodine for preparation. To reduce the number of animals used, the back of the rat was further divided into left and right parts. One drug was injected first at the right part. After a washout period of one week, another drug was injected at the left part.
0.6 mL of drug was injected subcutaneously under the dorsal surface of the thoracolumbar region of the rat using a 30-gauge needle attached to a syringe (Becton Drive, Franklin Lakes, USA). The subcutaneous injection would result in a circular elevation (i.e., a wheal) of the skin, about 2 cm in diameter. The elevation was marked with ink within 1 minute after injection.
CTMR refers to the reflex movement of the skin of the back caused by twitching of the lateral thoracispinal muscle in response to local dorsal cutaneous stimulation. Essentially, a von Frey filament (No.15; Somedic Sales AB, Sweden) to which a cut end of an 18-gauge needle was affixed was used to produce a standard nociceptive stimulus (strength: 19 g). Six pinpricks (at a frequency of 0.5-1 Hz) were applied to a single marked wheal during each test. […] For example, absence of any response to all of the 6 pinpricks was defined as a complete nociceptive block (i.e., 100% MPE).
The difference resided in that subcutaneous injections of ED25, ED50 and ED75 of the drugs were performed based on the method described in the section “A. Drug injection” of this example, and evaluation of the infiltrative cutaneous anesthetic effect was performed based on the method described in the section “B. Neurobehavioral evaluation” of this example.

sciatic nerve = assay: Sciatic nerve blockade after injection at the sciatic nerve notch in rats; type: in vivo; set-up: AUC of time-% PE curve, sciatic nerve blockade of motor function / AUC of time-% PE curve, sciatic nerve blockade of proprioception / AUC of time-% PE curve, sciatic nerve blockade of nociceptive reaction: unit not given beside the values; settings: rats
Procedure: (§1) Male Sprague-Dawley rats (weighing about 300 to 350 g); for each dose of each drug, n=6.
In brief, the rats were slightly anesthetized by inhalation of a low concentration of sevoflurane. Then, 200 μL of tested drugs were injected at the sciatic nerve notch at the left hind limb of the rat using a 27-gauge needle connected to a tuberculin syringe (Becton Dickinson, USA, model BND309623-BX). Thereafter, development of sciatic nerve blockade was observed from the paralysis of the left hind limb of the rat. The right hind limb served as a control during the subsequent functional assay
For proprioception, the front half of the rat body and the right hind limb were off the ground at the same time so that the rat was standing on the left hind limb during the measurement.
The differences resided in that: The sciatic nerve notch injections of ED25, ED50 and ED75 were conducted based on the method described in the preceding section “A. Drug injection” of this example. Evaluations of motor function, proprioception and nociceptive reaction were conducted based on the method described in section “B. Neurobehavioral evaluations” of this example.
The differences resided in that: Before the statistical analysis, Shapiro-Wilk test was used to evaluate whether the data were, theoretically, normally distributed.

Male Sprague-Dawley rats [2] = assay: Spinal anesthetic effect (spinal blockade) after intrathecal injection in rats; type: in vivo; set-up: AUC of time-% PE curve, spinal blockade of motor function / AUC of time-% PE curve, spinal blockade of proprioception / AUC of time-% PE curve, spinal blockade of nociceptive reaction: unit not given beside the values
Procedure: as §1
In brief, for preparation, the hairs on the back of each rat were shaved, and the shaved back was sterilized with iodine.
After three minutes, 50 μL of each of the tested drugs was injected via a 27-gauge needle attached to a 100-μL syringe (Hamilton, Reno, Nev.) into the intrathecal space between the fourth and fifth lumbar vertebrae. The development of spinal blockade was observed from the paralysis of the hind limbs of the rats.
The magnitude of nerve block (including blocking of motor function, proprioception, and nociceptive reaction) was expressed as the percentage of possible effect (hereinafter referred to as % PE), and the maximal value of % PE was expressed as the percentage of maximal possible effect (hereinafter referred to as % MPE).
Motor function was evaluated by measuring the extensor postural thrust of the right hind limbs of the rats using a digital platform balance (Mettler Toledo, Switzerland, model PB1502-S). To test the extensor postural thrust, the rat was held upright with the hind limb extended, so that the body weight of the rat was supported by the distal metatarsus and toes. The extensor postural thrust could be measured as the force of the right hind limb of the rat thrusting the platform balance.
A reduction in the force, resulting in extensor muscle tone, was considered as a motor deficit. A force less than 20 g (i.e., a weight of the “flaccid limb”) was considered absence of an extensor postural thrust or 100% motor block or 100% MPE.
Proprioception was evaluated based on resting posture and postural reactions (including tactile placing and hopping). First, the front half of the rat body and one of the hind limbs were lifted off the ground at the same time so that the rat was standing on one hind limb. Then, the rat was moved laterally, which normally evoked a prompt hopping response of the weight-bearing hind limb of the rat in the direction of movement so as to avoid falling. A predominantly proprioceptive block caused a delayed hopping followed by greater lateral hops. […] Functional deficits were classified into four grades: 3 (normal or 0% MPE), 2 (slightly impaired), 1 (severely impaired), and 0 (completely impaired or 100% MPE).
Nociceptive reaction was evaluated by the withdrawal reflex or vocalization elicited by the pinch of a skin fold over the back at 1 cm near the proximal part of the tail, the lateral metatarsus of the bilateral hind limbs, and the dorsal part of the mid-tail. At each testing time, only one pinch was given to each of the abovementioned four testing sites, and the time interval between stimulations at different sites was around 2 seconds. Nociceptive reactions were classified into five grades: 4 (normal or 0% MPE), 3 (25% MPE), 2 (50% MPE), 1 (75% MPE), and 0 (absent or 100% MPE).
The potency of each drug on spinal blockades was compared using ED50.
Duration was defined as the interval from injection of the tested drugs to complete recovery. The ED25, ED50 and ED75 obtained according to the SAS NLIN analysis in the preceding section “C. Potency evaluation” were used in this experiment.
Regarding the method of evaluating the effect of co-administration, dextromethorphan hydrobromide monohydrate was used as an example.
After the tests, the time of measurement of each drug and its corresponding % PE were plotted to obtain the time-% PE curves of each drug. The area under the curve (AUC) of time-% PE was calculated using the trapezoidal rule, and was used to evaluate the effect of the co-administration of the drugs.
Statistical software, SPSS for Windows® (version 10.0.7) was used. Data were represented as mean±SEM.

rats = assay: Systemic safety indices: mortality 24 hours after intraperitoneal injection in rats; settings: intraperitoneal injection, rats, mortality after 24 hours
Procedure: Essentially, each drug was injected intraperitoneally into the rats (n=8). The number of dead rats was observed after 24 hours, and the rate of mortality (%) was calculated. Thereafter, the doses of each drug and the relative mortality were plotted to obtain dose-mortality curves of the drugs. […] The safety index (LD50/ED50) of each drug was calculated using the LD50 thus obtained and the ED50 obtained in the section “C. Potency evaluation” of this example.

[3] = infiltrative cutaneous anesthesia, rats, 2ED50 when administered independently, ED50 for co-administration, mean ± SEM
[4] = infiltrative cutaneous anesthesia, subcutaneous injection, rats
[5] = subcutaneous dose of ED75, rats, mean±SEM
[6] = 2ED50 when administered independently, ED50 of each drug when co-administered, mean ± SEM
[7] = intrathecal, rats, 2 ED50 when administered independently, ED50 of each drug when co-administered, mean ± SEM
[8] = spinal blockade, mean of motor function, proprioception and nociceptive reaction, intrathecal, rats

How did the “% MPE” value (Male Sprague-Dawley rats [1]; [3]) turn out when Dextrorphan tartrate was run?
Its value is 73 ± 11 % MPE.

And the “AUC (% min.)” value (Male Sprague-Dawley rats [1]; [3])?
The value was 3200 ± 690 % min.

What about the “Duration” value (Male Sprague-Dawley rats [1]; [3]) of the same substance?
Its value is 63 ± 7 min.

And the ED25 (Male Sprague-Dawley rats [1]; [4])?
The ED25 was 4.03 mg/kg.

What about the “ED50 (95% CI)” value (Male Sprague-Dawley rats [1]; [4]) of the same substance?
Its value is 5.66 (5.17–6.21) mg/kg.

What about the ED75 (Male Sprague-Dawley rats [1]; [4]) of the same substance?
Its ED75 is 7.97 mg/kg.

What about the “duration of cutaneous anesthesia compared with lidocaine hydrochloride” value (Male Sprague-Dawley rats [1]; same effective doses (ED25, ED50 or ED75), rats) of the same substance?
The value was “longer duration”.

And the “% MPE of cutaneous nociceptive block” value (Male Sprague-Dawley rats [1]; [5])?
Its value is 73±7 % MPE.

And the “duration of cutaneous nociceptive block” value (Male Sprague-Dawley rats [1]; [5])?
Its value is about 48 ± 3 min.

What about the “effect of co-administration with lidocaine hydrochloride on cutaneous nociceptive blockade” value (Male Sprague-Dawley rats [1]; subcutaneous, rats, ED50 of each drug) of the same substance?
Its value is “additive effect”.

And the “effect of co-administration with lidocaine hydrochloride on sciatic nerve blockades” value (sciatic nerve; ED50 of each drug)?
Its value is “additive effect”.

And the “AUC of time-% PE curve, sciatic nerve blockade of motor function” value (sciatic nerve; [6])?
Its value is 7077 ± 429.

And the “AUC of time-% PE curve, sciatic nerve blockade of nociceptive reaction” value (sciatic nerve; [6])?
The value was 8786 ± 915.

And the “AUC of time-% PE curve, sciatic nerve blockade of proprioception” value (sciatic nerve; [6])?
Its value is 7357 ± 558.

What about the “duration of sciatic nerve blockade compared with lidocaine hydrochloride” value (sciatic nerve; same effective doses (ED25, ED50 or ED75)) of the same substance?
The value was “longer reaction duration”.

And the “Motor function ED50 (95% CI)” value (sciatic nerve; sciatic nerve blockade of motor function)?
The value was 14.66 (13.78–15.58) mg/kg.

And the “Nociceptive reaction ED50 (95% CI)” value (sciatic nerve; sciatic nerve blockade of nociceptive reaction)?
The value was 13.38 (12.37–14.47) mg/kg.

What about the “Proprioception ED50 (95% CI)” value (sciatic nerve; sciatic nerve blockade of proprioception) of the same substance?
Its value is 14.52 (13.40–15.73) mg/kg.

What about the “Mean ED50” value (sciatic nerve; sciatic nerve blockade, mean of motor function, proprioception and nociceptive reaction) of the same substance?
Its value is 14.19 mg/kg.

What about the “% MPE of spinal blockades of motor function, proprioception and nociceptive reaction (range over the three functions)” value (Male Sprague-Dawley rats [2]; intrathecal dose of ED75, rats) of the same substance?
Its value is 62-77 % MPE.

And the “duration of spinal blockades of motor function, proprioception and nociceptive reaction (range over the three functions)” value (Male Sprague-Dawley rats [2]; intrathecal dose of ED75, rats)?
Its value is 30 to 65 min.

What about the “effect of co-administration with bupivacaine hydrochloride on spinal blockade” value (Male Sprague-Dawley rats [2]; intrathecal, rats, ED50 of each drug) of the same substance?
The value was “synergistic effect”.

And the “AUC of time-% PE curve, spinal blockade of motor function” value (Male Sprague-Dawley rats [2]; [7])?
The value was 1447 ± 163.

And the “AUC of time-% PE curve, spinal blockade of nociceptive reaction” value (Male Sprague-Dawley rats [2]; [7])?
The value was 4332 ± 382.

What about the “Motor function ED50 (95% CI)” value (Male Sprague-Dawley rats [2]; spinal blockade of motor function, intrathecal injection, rats) of the same substance?
Its value is 0.40 (0.39–0.42) mg.

What about the “Nociceptive reaction ED50 (95% CI)” value (Male Sprague-Dawley rats [2]; spinal blockade of nociceptive reaction, intrathecal injection, rats) of the same substance?
Its value is 0.28 (0.26–0.30) mg.

And the “Proprioception ED50 (95% CI)” value (Male Sprague-Dawley rats [2]; spinal blockade of proprioception, intrathecal injection, rats)?
The value was 0.32 (0.30–0.35) mg.

And the “Mean value ED25” value (Male Sprague-Dawley rats [2]; [8])?
Its value is 0.25 mg.

What about the “Mean value ED50” value (Male Sprague-Dawley rats [2]; [8]) of the same substance?
Its value is 0.33 mg.

And the “Mean value ED75” value (Male Sprague-Dawley rats [2]; [8])?
Its value is 0.45 mg.

What about the “LD50 (95% CI)” value (rats) of the same substance?
Its value is 307 (257–369) mg/kg.
